According to paper PMC11887051, “Discovery of ONO-2920632 (VU6011887): A Highly Selective and CNS Penetrant TREK-2 (TWIK-Related K+ Channel 2) Preferring Activator In Vivo Tool Compound” (ACS Chemical Neuroscience, 2025):

What was measured:
[1] = target: Serotonin (5-HT1A) (Homo sapiens, UniProt P08908); assay: Eurofins Lead Profiling radioligand binding; details: title: 30 μM
[2] = target: Endothelin ETA (Homo sapiens, UniProt P25101); assay: Eurofins Lead Profiling radioligand binding; details: title: 30 μM
Chain of Endothelin ETA (P25101 21-427): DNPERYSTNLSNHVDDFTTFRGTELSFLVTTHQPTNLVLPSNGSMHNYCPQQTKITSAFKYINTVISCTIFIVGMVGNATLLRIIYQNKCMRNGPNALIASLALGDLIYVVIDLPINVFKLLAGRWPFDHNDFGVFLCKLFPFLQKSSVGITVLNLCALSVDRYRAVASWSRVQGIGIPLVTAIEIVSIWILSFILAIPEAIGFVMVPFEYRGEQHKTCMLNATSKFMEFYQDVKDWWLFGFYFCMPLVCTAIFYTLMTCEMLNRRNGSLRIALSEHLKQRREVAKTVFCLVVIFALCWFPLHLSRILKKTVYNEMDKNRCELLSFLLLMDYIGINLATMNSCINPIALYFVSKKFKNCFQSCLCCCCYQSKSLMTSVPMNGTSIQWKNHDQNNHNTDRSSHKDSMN

[3] = target: Nicotinic Acetylcholine α1, Bungarotoxin (Homo sapiens, UniProt P02708+P07510+Q07001); assay: Eurofins Lead Profiling radioligand binding; details: read-out: % Inhibition at 10 µM
[4] = target: Muscarinic M1 (Homo sapiens, UniProt P11229); assay: Eurofins Lead Profiling radioligand binding; details: title: 30 μM
Chain of Muscarinic M1 (P11229 whole entry): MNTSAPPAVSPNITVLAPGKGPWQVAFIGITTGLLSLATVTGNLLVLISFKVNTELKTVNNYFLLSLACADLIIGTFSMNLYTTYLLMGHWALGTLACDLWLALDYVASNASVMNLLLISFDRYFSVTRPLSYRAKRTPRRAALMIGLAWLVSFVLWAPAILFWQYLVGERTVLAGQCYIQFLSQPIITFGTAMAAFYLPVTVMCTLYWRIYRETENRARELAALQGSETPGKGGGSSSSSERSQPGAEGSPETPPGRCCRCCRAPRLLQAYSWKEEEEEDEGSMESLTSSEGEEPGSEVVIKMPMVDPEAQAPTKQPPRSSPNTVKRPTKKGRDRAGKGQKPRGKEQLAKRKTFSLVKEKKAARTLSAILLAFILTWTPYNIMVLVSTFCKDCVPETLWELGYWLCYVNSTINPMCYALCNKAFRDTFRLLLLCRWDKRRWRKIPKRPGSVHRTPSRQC

[5] = target: Transporter, Norepinephrine (NET) (Homo sapiens, UniProt P23975); assay: Eurofins Lead Profiling radioligand binding; details: title: 30 μM
Chain of Transporter, Norepinephrine (NET) (P23975 whole entry): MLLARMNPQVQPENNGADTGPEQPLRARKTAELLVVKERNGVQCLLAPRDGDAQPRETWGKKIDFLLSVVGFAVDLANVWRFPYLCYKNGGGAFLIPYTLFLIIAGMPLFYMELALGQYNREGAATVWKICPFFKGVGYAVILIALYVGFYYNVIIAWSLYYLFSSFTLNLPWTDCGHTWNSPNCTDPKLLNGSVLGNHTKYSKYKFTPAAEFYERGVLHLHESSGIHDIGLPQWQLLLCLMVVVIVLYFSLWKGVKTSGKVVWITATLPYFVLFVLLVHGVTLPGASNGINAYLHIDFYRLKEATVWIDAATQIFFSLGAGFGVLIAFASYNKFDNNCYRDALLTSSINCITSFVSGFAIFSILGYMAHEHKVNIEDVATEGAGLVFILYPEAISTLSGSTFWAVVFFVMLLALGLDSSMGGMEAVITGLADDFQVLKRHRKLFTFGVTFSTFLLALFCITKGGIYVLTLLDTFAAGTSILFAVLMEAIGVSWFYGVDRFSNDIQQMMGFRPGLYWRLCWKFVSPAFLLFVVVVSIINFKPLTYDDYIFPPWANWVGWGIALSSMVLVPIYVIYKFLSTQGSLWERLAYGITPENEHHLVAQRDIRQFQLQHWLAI

[6] = tested on: Glutamate, NMDA, Phencyclidine; assay: Eurofins Lead Profiling radioligand binding; design: species or system Rat; details: title: 30 μM
[7] = dog IV PK study; assay type: in vivo; details: male, beagle, plasma, 0.1 mg/kg IV, HP-β-CD solution
Method: Plasma and brain tissue samples originating from in vivo studies were analyzed by electrospray ionization using an AB Sciex Q-TRAP 5500 (Foster City, CA) that was coupled to a Shimadzu LC-20AD pump (Columbia, MD) and a Leap Technologies CTC PAL auto-sampler (Carrboro, NC). Analytes were separated by gradient elution using a C18 column (3 x 50 mm, 3 mm; Fortis Technologies Ltd, Cheshire, UK) that was thermostated at 40 °C. HPLC mobile phase A was 0.1% formic acid in water (pH unadjusted); mobile phase B was 0.1% formic acid in acetonitrile (pH […]
min, with an isocratic hold for 0.5 min, before transitioning to 10% B over 0.05 min. The column was re-equilibrated (1 min) before the next sample injection. The total run time was 2.55 min, and the HPLC flow rate was 0.5 ml/min. The source temperature was set at 500 °C, and mass spectral analyses were performed using a Turbo-Ion spray source in positive ionization mode (5.0-kV spray voltage) and using multiple-reaction monitoring of transitions specific for the analytes. All data were analyzed using AB Sciex Analyst 1.5.1 software. […]
For determination of the plasma concentration-time profile, compounds were formulated in methyl cellulose and administered as a 3 mg/kg PO dose to male C57BL/6 mouse or SD rat (n = 2). For the same determination, compounds were formulated in HP-β-CD and administered as a 0.1 mg/kg IV dose to male beagle dog (n = 2).
Plasma samples originating from in vivo studies were analyzed by electrospray ionization using a Q-TRAP 5500 (AB Sciex) that was coupled to a Prominence UFLC XR (Shimadzu Corporation).
Analytes were separated by gradient elution using a Shim-pack XR-ODS II (2 x 75 mm, 2.2μm, Shimadzu Corporation) that was thermostated at 40 °C. HPLC mobile phase A was 5 mM ammonium acetate containing 0.2% formic acid in water (pH unadjusted); mobile phase B was […]
hold for 1.5 min, before transitioning to 10% B over 0.1 min. The column was re-equilibrated (0.9 min) before the next sample injection. The total run time was 4.0 min, and the HPLC flow rate was 0.5 ml/min. […]

[8] = target: Neuropeptide Y Y2 (Homo sapiens, UniProt P49146); assay: Eurofins Lead Profiling radioligand binding; details: title: 30 μM
Chain of Neuropeptide Y Y2 (P49146 whole entry): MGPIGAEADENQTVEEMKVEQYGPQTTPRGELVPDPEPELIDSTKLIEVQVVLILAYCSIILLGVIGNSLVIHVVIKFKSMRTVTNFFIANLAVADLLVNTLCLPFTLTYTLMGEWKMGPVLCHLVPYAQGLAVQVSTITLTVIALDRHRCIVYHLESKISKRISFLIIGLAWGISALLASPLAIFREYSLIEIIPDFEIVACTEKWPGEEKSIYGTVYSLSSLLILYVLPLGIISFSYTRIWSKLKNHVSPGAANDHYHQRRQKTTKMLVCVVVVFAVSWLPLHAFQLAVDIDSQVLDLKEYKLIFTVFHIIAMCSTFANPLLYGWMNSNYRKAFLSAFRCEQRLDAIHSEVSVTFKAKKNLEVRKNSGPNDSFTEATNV

[9] = target: Platelet Activating Factor (PAF) (Homo sapiens, UniProt P25105); assay: Eurofins Lead Profiling radioligand binding; details: title: 30 μM
Chain of Platelet Activating Factor (PAF) (P25105 whole entry): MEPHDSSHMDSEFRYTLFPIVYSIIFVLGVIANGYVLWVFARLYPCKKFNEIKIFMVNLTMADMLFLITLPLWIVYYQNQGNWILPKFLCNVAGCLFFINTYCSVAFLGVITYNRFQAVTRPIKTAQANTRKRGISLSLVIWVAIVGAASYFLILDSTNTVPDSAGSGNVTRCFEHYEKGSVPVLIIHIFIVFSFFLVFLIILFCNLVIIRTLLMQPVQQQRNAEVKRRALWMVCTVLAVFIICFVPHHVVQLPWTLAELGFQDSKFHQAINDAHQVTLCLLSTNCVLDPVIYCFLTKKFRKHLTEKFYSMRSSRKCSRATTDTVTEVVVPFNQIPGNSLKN

[10] = target: Androgen (Testosterone) (Homo sapiens, UniProt P10275); assay: Eurofins Lead Profiling radioligand binding; details: title: 30 μM
[11] = target: Bradykinin B2 (Homo sapiens, UniProt P30411); assay: Eurofins Lead Profiling radioligand binding; details: title: 30 μM
Chain of Bradykinin B2 (P30411 whole entry): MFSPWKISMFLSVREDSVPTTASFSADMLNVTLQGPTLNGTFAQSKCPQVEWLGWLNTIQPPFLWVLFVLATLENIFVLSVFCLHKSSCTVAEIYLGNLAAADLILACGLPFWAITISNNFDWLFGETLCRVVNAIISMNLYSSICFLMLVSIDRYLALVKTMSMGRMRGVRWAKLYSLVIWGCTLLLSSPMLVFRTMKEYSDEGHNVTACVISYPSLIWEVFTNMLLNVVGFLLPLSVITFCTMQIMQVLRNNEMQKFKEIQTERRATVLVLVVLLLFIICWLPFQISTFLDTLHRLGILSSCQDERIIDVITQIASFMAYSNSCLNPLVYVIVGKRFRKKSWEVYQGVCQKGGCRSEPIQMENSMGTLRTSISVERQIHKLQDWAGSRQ

[12] = target: Calcium Channel N-Type (Rattus norvegicus, UniProt Q02294); assay: Eurofins Lead Profiling radioligand binding; details: title: 30 μM
[13] = target: Serotonin (5-HT3) (Homo sapiens, UniProt P46098); assay: Eurofins Lead Profiling radioligand binding; details: title: 30 μM
Chain of Serotonin (5-HT3) (P46098 24-478): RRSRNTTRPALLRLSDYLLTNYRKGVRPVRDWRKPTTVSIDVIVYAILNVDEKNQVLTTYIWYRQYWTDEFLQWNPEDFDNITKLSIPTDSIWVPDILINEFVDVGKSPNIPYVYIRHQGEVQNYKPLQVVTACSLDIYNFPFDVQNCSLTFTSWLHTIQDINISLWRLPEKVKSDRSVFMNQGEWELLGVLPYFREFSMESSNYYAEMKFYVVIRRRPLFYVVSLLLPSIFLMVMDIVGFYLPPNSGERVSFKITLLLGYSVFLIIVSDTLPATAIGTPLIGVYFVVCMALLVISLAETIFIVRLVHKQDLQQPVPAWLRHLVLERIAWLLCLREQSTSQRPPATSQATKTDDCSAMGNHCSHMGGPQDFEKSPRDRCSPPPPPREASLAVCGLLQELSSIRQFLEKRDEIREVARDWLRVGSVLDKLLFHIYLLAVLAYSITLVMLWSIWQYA

[14] = target: Adrenergic α2A (Homo sapiens, UniProt P08913); assay: Eurofins Lead Profiling radioligand binding; details: title: 30 μM
[15] = target: Transporter, GABA (Rattus norvegicus, UniProt P23978); assay: Eurofins Lead Profiling radioligand binding; details: title: 30 μM
[16] = target: hERG potassium channel (Homo sapiens, UniProt Q12809); assay: Eurofins Lead Profiling radioligand binding; details: title: 30 μM
[17] = target: Nicotinic Acetylcholine α3β4 (Homo sapiens, UniProt P30926+P32297); assay: Eurofins Lead Profiling radioligand binding; details: title: 30 μM
[18] = target: Melatonin MT1 (Homo sapiens, UniProt P48039); assay: Eurofins Lead Profiling radioligand binding; details: title: 30 μM
Chain of Melatonin MT1 (P48039 whole entry): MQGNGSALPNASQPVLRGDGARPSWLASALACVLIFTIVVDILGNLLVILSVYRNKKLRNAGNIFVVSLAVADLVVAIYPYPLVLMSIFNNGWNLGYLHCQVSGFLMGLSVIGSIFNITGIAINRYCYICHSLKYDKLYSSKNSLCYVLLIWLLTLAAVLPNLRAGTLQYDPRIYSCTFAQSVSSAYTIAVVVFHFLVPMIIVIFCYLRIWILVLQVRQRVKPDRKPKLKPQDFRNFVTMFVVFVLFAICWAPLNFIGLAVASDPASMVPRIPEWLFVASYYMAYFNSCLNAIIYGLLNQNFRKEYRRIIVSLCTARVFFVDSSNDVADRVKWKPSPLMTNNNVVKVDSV

[19] = tested on: GABAA, Muscimol, Central; assay: Eurofins Lead Profiling radioligand binding; design: species or system Rat; details: title: 30 μM
[20] = target: Adrenergic β2 (Homo sapiens, UniProt P07550); assay: Eurofins Lead Profiling radioligand binding; details: title: 30 μM
Chain of Adrenergic β2 (P07550 whole entry): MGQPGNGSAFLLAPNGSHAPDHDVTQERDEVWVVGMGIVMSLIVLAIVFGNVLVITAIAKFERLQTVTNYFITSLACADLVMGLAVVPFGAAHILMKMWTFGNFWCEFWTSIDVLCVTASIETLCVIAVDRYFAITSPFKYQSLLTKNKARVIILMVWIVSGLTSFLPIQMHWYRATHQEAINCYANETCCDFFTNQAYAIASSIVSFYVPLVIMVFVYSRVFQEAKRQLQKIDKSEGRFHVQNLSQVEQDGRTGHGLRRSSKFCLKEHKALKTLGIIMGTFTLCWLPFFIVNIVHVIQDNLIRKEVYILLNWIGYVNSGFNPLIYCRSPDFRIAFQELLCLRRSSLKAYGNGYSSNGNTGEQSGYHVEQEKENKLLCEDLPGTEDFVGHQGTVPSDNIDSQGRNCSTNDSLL

[21] = target: T1, TREK-2 (Homo sapiens, UniProt P57789); assay: human TREK-2 MPC assay; assay type: cell-based; design: expressed in transfected cells; host or cells: HEK293
T1 sequence (P57789 1-538): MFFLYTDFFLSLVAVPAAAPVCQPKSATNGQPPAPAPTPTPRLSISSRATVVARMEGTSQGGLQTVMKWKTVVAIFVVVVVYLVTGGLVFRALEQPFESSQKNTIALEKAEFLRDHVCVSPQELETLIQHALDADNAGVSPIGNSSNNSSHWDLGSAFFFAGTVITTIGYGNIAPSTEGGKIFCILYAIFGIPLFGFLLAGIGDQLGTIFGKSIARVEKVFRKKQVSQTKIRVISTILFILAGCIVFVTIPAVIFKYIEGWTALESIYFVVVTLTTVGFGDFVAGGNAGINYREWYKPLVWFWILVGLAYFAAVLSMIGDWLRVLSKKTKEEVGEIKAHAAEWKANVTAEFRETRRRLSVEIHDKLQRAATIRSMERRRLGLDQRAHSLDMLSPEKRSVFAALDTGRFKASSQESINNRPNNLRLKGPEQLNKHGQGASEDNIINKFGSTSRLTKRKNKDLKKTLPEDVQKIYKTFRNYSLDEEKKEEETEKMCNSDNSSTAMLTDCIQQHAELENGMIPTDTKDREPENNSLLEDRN

Chain of Serotonin (5-HT1A) (P08908 whole entry): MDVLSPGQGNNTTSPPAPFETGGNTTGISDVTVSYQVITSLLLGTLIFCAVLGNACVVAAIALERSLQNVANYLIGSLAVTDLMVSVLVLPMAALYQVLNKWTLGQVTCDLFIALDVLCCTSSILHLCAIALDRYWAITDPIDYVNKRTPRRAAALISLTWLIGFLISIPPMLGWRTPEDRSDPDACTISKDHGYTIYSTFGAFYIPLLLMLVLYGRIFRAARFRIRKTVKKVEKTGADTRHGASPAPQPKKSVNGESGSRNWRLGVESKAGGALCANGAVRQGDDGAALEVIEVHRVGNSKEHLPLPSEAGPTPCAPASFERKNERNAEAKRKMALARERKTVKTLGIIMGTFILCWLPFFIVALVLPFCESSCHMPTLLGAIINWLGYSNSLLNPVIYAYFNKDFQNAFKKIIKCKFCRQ

Compound `O=C(NCc1ccc(OC(F)(F)F)cc1F)c1ccc2ncnn2c1` [Compound 19b] has an inhibition [1] of 2%, an inhibition [2] of -3% and an inhibition at 10 µM [3] of 20%. The inhibition [4] was 1%, the inhibition [5] was 29% and the “% Inhibition at 10 µM” value [6] was 0%. It also gave a half-life [7] of 22 h, a clearance ([7]; read-out: CLp) of 1.3 mL/min/kg and a Vd ([7]; read-out: Vss) of 2.2 L/kg. The inhibition [8] was -1%, the inhibition [9] was 12% and the inhibition [10] was 18%. It also gave an inhibition at 10 µM [11] of 5%, an inhibition [12] of -1% and an inhibition [13] of 4%. The inhibition [14] was 3%, the inhibition [15] was -6% and the inhibition [16] was 44%. For the same compound, the inhibition [17] was -17%, the inhibition [18] was 17% and the “% Inhibition at 10 µM” value [19] was -1%. For the same compound, the inhibition [20] was 2%.
For `O=C(NCc1ccc(OC(F)(F)F)cc1Cl)c1ccc2nncn2c1` [Compound 20], the EC50 [21] was 190 nM and the Emax [21] was 142%.
